Experimental data: patent US20210052537A1, “COLITIS AMELIORATING AGENT” (ASTA PHARMACEUTICALS, CO., LTD., priority 2018, published 2021)
Values joined by “and” are separate entries in the source; they are usually repeats but may differ in a detail not shown here. Identical values can stand only once.

Key:
DSS-induced colitis = DSS-induced colitis mouse model (experimental ulcerative colitis); assay type: in vivo; details: for Fecal scoring average value: score 0-3
Experimental: In this Example, mouse models to which dextran sulfate sodium salt (DSS) is used will be described as colitis models. When DSS is administered by being mixed in drinking water of the mouse, an experimental ulcerative colitis model similar to human ulcerative colitis in terms of symptoms such as suppression of body weight increase, blood in stools, and anemia and formation of colon erosion and further lacking intestinal lesion was build (Non-Patent Literature 3). A suppression effect of Compound X on colitis in such a model as the representative colitis model was examined. For the evaluation items, recovery from diarrhea and body weight loss by colitis, and the length and weight of the colon were examined as changes in colon properties, which are widely known to occur by DSS-induced colitis.
For treatment, C57BL/6J, male mice were purchased from CHARLES RIVER LABORATORIES JAPAN, INC. in accordance with previous literature (Non-Patent Literature 2) and 5-week old mice with no abnormal general conditions during quarantine and acclimation period were used for the experiment. After acclimation, the animals were divided in such a way as to be 1 mouse per cage. DSS used in the experiment having a molecular weight of from 36,000 to 50,000 Da was purchased from MP Bio Japan. DSS was added to tap water in such a way as to be 3% and suspended for causing colitis. The suspension was prepared once every 3 days and freely provided to each of the mice as water supply. A solution from which DSS was removed was provided as water supply to a non-pathological control group.
After group division, each of the test substances of Table 1 was suspended in a solution of 0.5% sodium carboxymethyl cellulose (hereinafter, CMC, Nacalai Tesque Inc.) in such a way as to be each treatment of Table 1 and orally administered once daily. […] These control groups, Groups 1 and 2, were orally administered, as the test substance, with the 0.5% CMC solution used as the medium.
Drinking water after the group division was typical water for drinking.
The test started with 6 mice in Group No. 1 and 10 mice each in Group Nos. 2 to 6.
Body weights were measured on the DSS administration starting day (day −5), DSS administration last day (day 0), on day 3, day 5, day 8, and day 10 of test substance administration.
The therapeutic effect was evaluated by observing changes in blood in stools caused by enteritis as the body weight recovery alone can be considered that the body weight increase might have been promoted simply by the growth. Mice feces were observed on the DSS administration starting day (day-5), DSS administration last day (day 0), on day 3, day 5, day 8, and day 10 of test substance administration and scored in accordance with the criteria of Table 2.
(§1) For evaluating the therapeutic effect of Compound X, the length and weight of the colon were measured. The mice were euthanized under anesthesia on day 10 of test substance administration and dissected to remove the colon. The removed colon was quickly measured for a length in a relaxed state. Subsequently, feces in the intestinal tract were removed and sufficiently washed with phosphate buffered saline (Wako Pure Chemical Industries, Ltd.) and measured for a wet weight.

Oxa-induced colitis = assay: Oxazolone (Oxa)-induced colitis mouse model; assay type: in vivo; details: for Colon length compared with Vehicle group / Colon wet weight compared with Vehicle group: Group Nos. 3 to 6 of Table 7, in words; for Colon length / Colon weight (wet weight per length): 6 days, day 7, mean ± SD
Source text: In this Example, mouse models to which oxazolone (4-ethoxymethylene-2-phenyl-2-oxazolin-5-on, hereinafter, Oxa) is used will be described as colitis models. When Oxa was first applied to skin, subsequently administered enterally after a certain period of time, an experimental ulcerative colitis model similar to human ulcerative colitis in terms of not only symptoms such as suppression of body weight increase, blood in stools, and anemia and formation of colon erosion but also immune cells was built (Non-Patent Literature 4). A suppression effect of Compound X on colitis in such a model as the test model showing pathological conditions more similar to human ulcerative colitis was examined. For the examination items, the length and weight of the colon were examined as changes in colon properties are widely known to occur also in this model.
For treatment, Balb/c, male mice were purchased from CHARLES RIVER LABORATORIES JAPAN, INC. in accordance with previous literature (Non-Patent Literature 5) and 8-week old mice with no abnormal general conditions during quarantine and acclimation period were used for the experiment. After acclimation, the animals were divided in such a way as to be 1 mouse per cage. Oxa used in the experiment was purchased from Sigma.
Fur at back of the neck was shaved in an area of 1.5×1.5 cm under anesthesia, and 150 μL (a 100% ethanol solution) of 3% (wt/vol) Oxa was added using a pipette and applied between the shoulders to sensitize (Day 1). The mice were kept under such a typical breeding environment, fasted for 16 hours from Day 7 (water supply was continued), and subsequently on Day 8 100 μL of a solution of 1% (wt/vol) Oxa in 50% ethanol was transanally administered into the rectum (3.5 cm from the anus) using a catheter under anesthesia. Hereinafter, the above treatment is described as Oxa treatment. After treatment, typical feeding breeding was carried out.
Starting on the day following intrarectal administration of Oxa, test substances were orally administered (once daily, for 6 days). 5-Aminosalicylic acid (hereinafter 5-ASA, Tokyo Chemical Industry, Co., Ltd.) and prednisolone (hereinafter, PSL, Sigma), which are anti-inflammatory agents used for treating ulcerative colitis, were used as positive controls for the test. After group division, each of the test substances of Table 6 was suspended in a solution of 0.5% sodium carboxymethyl cellulose (hereinafter, CMC, Nacalai Tesque Inc.) in such a way as to be each treatment of Table 6 and orally administered once daily. […] These control groups, Groups 1 and 2, were orally administered, as the test substance, with the 0.5% CMC solution which was used as the medium.
The test started with 6 mice in Group No. 1 and 9 mice each in Group Nos. 2 to 6. After the treatment started, death of animals in Group Nos. 2 to 6 due to the cause considered enteritis from Oxa treatment was observed and thus 6 mice in Group Nos. 1 and 3, and 5 mice in Group Nos. 2 and 6, and 7 mice in Group Nos. 4 and 5 were finally used for analysis.
as §1, with “It is generally acknowledged as a known fact that Oxa treatment causes colon tissue changes such as the length of colon is shortened while the weight increases. For” for “For”, “7” for “10”, “Oxa treatment” for “test substance administration”

[1] = DSS + 50 mg/kg/day oral, day 3, mean ± SD
[2] = DSS + 50 mg/kg/day oral, day 5, mean ± SD
[3] = Oxa treatment + 50 mg/kg/day oral, 50 mg/kg/day
[4] = Oxa treatment + 5 mg/kg/day oral, 5 mg/kg/day

Compound | Body weight recovery compared with the DSS administration only (DSS-induced colitis; 50 mg/kg/day oral, in words) | Time-dependent changes in blood feces score versus DSS administration group (DSS-induced colitis; 50 mg/kg/day oral, in words) | Fecal scoring average value (DSS-induced colitis; DSS + 50 mg/kg/day oral, day 0 (DSS last day), mean ± SD) | Body weight (DSS-induced colitis; [1]) [g] | Fecal scoring average value (DSS-induced colitis; [1]) | Body weight (DSS-induced colitis; [2]) [g] | Fecal scoring average value (DSS-induced colitis; [2]) | Fecal scoring average value (DSS-induced colitis; DSS + 50 mg/kg/day oral, day 8, mean ± SD) | Colon length (DSS-induced colitis; DSS + 50 mg/kg/day oral, day 10, mean ± SD, 50 mg/kg/day) | Fecal scoring average value (DSS-induced colitis; DSS + 50 mg/kg/day oral, day 10, mean ± SD) | Fecal scoring average value (DSS-induced colitis; DSS + 50 mg/kg/day oral, day −5 (before test substance), mean ± SD) | Colon length compared with DSS group (DSS-induced colitis; Group Nos. 3 to 5 (1, 10, 100 mg/kg/day) and Group No. 6 (50 mg/kg/day), in words) | Colon wet weight compared with DSS group (DSS-induced colitis; all treated groups of Table 5, in words) | Colon length compared with Vehicle group (Oxa-induced colitis) | Colon wet weight compared with Vehicle group (Oxa-induced colitis) | Colon length (Oxa-induced colitis; [3]) | Colon weight (wet weight per length) (Oxa-induced colitis; [3]) | Colon length (Oxa-induced colitis; [4]) | Colon weight (wet weight per length) (Oxa-induced colitis; [4])
Nc1ccc(O)c(C(=O)O)c1 [Compound 5-ASA, 5-Aminosalicylic acid, reference compound] | significant body weight recovery | did not have a difference | 1.0 ± 0.0 | 15.5 ± 1.0 | 1.5 ± 0.5 | 16.4 ± 1.7 | 1.8 ± 1.0 | 0.0 ± 0.0 | 6.54 cm and 6.54 ± 0.29 cm | 0.0 ± 0.0 | 0.0 ± 0.0 | longer length of the colon than DSS group | suppressed weight increases compared with DSS group | longer length of the colon than Vehicle group | suppressed weight increases compared with Vehicle group | 7.41 cm and 7.41 ± 0.37 cm | 4.12 mg/mm and 4.12 ± 0.56 mg/mm |  | 
C[C@]12C=CC(=O)C=C1CC[C@@H]1[C@@H]2[C@@H](O)C[C@@]2(C)[C@H]1CC[C@]2(O)C(=O)CO [PSL, prednisolone] |  |  |  |  |  |  |  |  |  |  |  |  |  | longer length of the colon than Vehicle group | suppressed weight increases compared with Vehicle group |  |  | 8.20 cm and 8.20 ± 0.52 cm | 3.37 mg/mm and 3.37 ± 0.36 mg/mm
